PubChem BioAssay (NCI)
Where “and” joins values, the source holds several entries; their conditions need not be identical. Identical values can stand only once.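 Assay format: 96-well plates, 48-hour exposure. GI50: concentration for 50% inhibition of growth. TGI: concentration producing complete growth inhibition.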

What was measured:
Assay in all cases: growth of human tumour cells (NCI), 48 h
[1] = tested on: OVCAR-8 ovarian
[2] = tested on: CCRF-CEM leukemia
[3] = tested on: SF-295 CNS
[4] = tested on: SNB-19 CNS
[5] = tested on: SK-MEL-5 melanoma
[6] = tested on: IGROV1 ovarian
[7] = tested on: M14 melanoma
[8] = tested on: MDA-MB-468 breast
[9] = tested on: SW-620 colon
[10] = tested on: SF-268 CNS
[11] = tested on: HOP-62 NSCLC
[12] = tested on: RXF 393 renal
[13] = tested on: K-562 leukemia
[14] = tested on: EKVX NSCLC
[15] = tested on: LOX IMVI melanoma
[16] = tested on: DU-145 prostate
[17] = tested on: MDA-MB-435
[18] = tested on: UACC-257 melanoma
[19] = tested on: NCI-H226 lung
[20] = tested on: MALME-3M melanoma
[21] = tested on: MOLT-4 leukemia
[22] = tested on: TK-10 renal
[23] = tested on: BT-549 breast
[24] = tested on: OVCAR-5 ovarian
[25] = tested on: HCT-116 colon
[26] = tested on: SK-MEL-2 melanoma
[27] = tested on: MDA-MB-231 breast
[28] = tested on: U251 CNS
[29] = tested on: A549 NSCLC
[30] = tested on: HS 578T breast
[31] = tested on: UACC-62 melanoma
[32] = tested on: SNB-75 CNS
[33] = tested on: SK-MEL-28 melanoma
[34] = tested on: A498 renal
[35] = tested on: SN12C renal
[36] = tested on: CAKI-1 renal
[37] = tested on: ACHN renal
[38] = tested on: COLO 205 colon
[39] = tested on: OVCAR-4 ovarian
[40] = tested on: HCC-2998 colon
[41] = tested on: NCI-H23 lung
[42] = tested on: OVCAR-3 ovarian
[43] = tested on: SK-OV-3 ovarian
[44] = tested on: 786-0 renal
[45] = tested on: NCI-H522 lung
[46] = tested on: HCT-15 colon
[47] = tested on: KM12 colon
[48] = tested on: SF-539 CNS
[49] = tested on: NCI-H460 lung
[50] = tested on: NCI/ADR-RES ovarian
[51] = tested on: RPMI-8226 leukemia
[52] = tested on: HOP-92 NSCLC
[53] = tested on: T-47D breast
[54] = tested on: MCF7 breast
[55] = tested on: HL-60(TB) leukemia
[56] = tested on: SR leukemia
[57] = tested on: UO-31 renal
[58] = tested on: PC-3 prostate

With `Cc1cccc(-c2nc(Nc3cccc(S(N)(=O)=O)c3)c3ccccc3n2)c1` the GI50 [1] was 9820 nM, the TGI [1] was > 100000 nM and the GI50 [2] was 4770 nM. For the same compound, the TGI [2] was > 100000 nM, the GI50 [3] was 4430 nM and the TGI [3] was > 100000 nM. The GI50 [4] was > 100000 nM, the TGI [4] was > 100000 nM and the GI50 [5] was > 100000 nM. The TGI [5] was > 100000 nM, the GI50 [6] was > 100000 nM and the TGI [6] was > 100000 nM. The GI50 [7] was > 100000 nM, the TGI [7] was > 100000 nM and the GI50 [8] was 5570 nM. The TGI [8] was > 100000 nM, the GI50 [9] was 17400 nM and the TGI [9] was > 100000 nM. The GI50 [10] was > 100000 nM, the TGI [10] was > 100000 nM and the GI50 [11] was > 100000 nM. For the same compound, the TGI [11] was > 100000 nM, the GI50 [12] was 6230 nM and the TGI [12] was > 100000 nM. For the same compound, the GI50 [13] was 3230 nM, the TGI [13] was > 100000 nM and the GI50 [14] was > 100000 nM. For the same compound, the TGI [14] was > 100000 nM, the GI50 [15] was 4760 nM and the TGI [15] was > 100000 nM. For the same compound, the GI50 [16] was > 100000 nM, the TGI [16] was > 100000 nM and the GI50 [17] was > 100000 nM. For the same compound, the TGI [17] was > 100000 nM, the GI50 [18] was > 100000 nM and the TGI [18] was > 100000 nM. For the same compound, the GI50 [19] was > 100000 nM, the TGI [19] was > 100000 nM and the GI50 [20] was > 100000 nM. For the same compound, the TGI [20] was > 100000 nM, the GI50 [21] was 4100 nM and the TGI [21] was > 100000 nM. The GI50 [22] was > 100000 nM, the TGI [22] was > 100000 nM and the GI50 [23] was > 100000 nM. The TGI [23] was > 100000 nM, the GI50 [24] was > 100000 nM and the TGI [24] was > 100000 nM. For the same compound, the GI50 [25] was 8090 nM, the TGI [25] was > 100000 nM and the GI50 [26] was > 100000 nM. The TGI [26] was > 100000 nM, the GI50 [27] was 6520 nM and the TGI [27] was > 100000 nM. The GI50 [28] was 11600 nM, the TGI [28] was > 100000 nM and the GI50 [29] was 10900 nM. For the same compound, the TGI [29] was > 100000 nM, the GI50 [30] was > 100000 nM and the TGI [30] was > 100000 nM. The GI50 [31] was > 100000 nM, the TGI [31] was > 100000 nM and the GI50 [32] was > 100000 nM. The TGI [32] was > 100000 nM, the GI50 [33] was > 100000 nM and the TGI [33] was > 100000 nM. The GI50 [34] was > 100000 nM, the TGI [34] was > 100000 nM and the GI50 [35] was > 100000 nM. The TGI [35] was > 100000 nM, the GI50 [36] was 13800 nM and the TGI [36] was > 100000 nM. For the same compound, the GI50 [37] was 7930 nM, the TGI [37] was > 100000 nM and the GI50 [38] was > 100000 nM. The TGI [38] was > 100000 nM, the GI50 [39] was > 100000 nM and the TGI [39] was > 100000 nM. For the same compound, the GI50 [40] was 4980 nM, the TGI [40] was > 100000 nM and the GI50 [41] was 30600 nM. The TGI [41] was > 100000 nM, the GI50 [42] was 9420 nM and the TGI [42] was > 100000 nM. For the same compound, the GI50 [43] was > 100000 nM, the TGI [43] was > 100000 nM and the GI50 [44] was 8530 nM. For the same compound, the TGI [44] was > 100000 nM, the GI50 [45] was 5690 nM and the TGI [45] was > 100000 nM. The GI50 [46] was 3530 nM, the TGI [46] was > 100000 nM and the GI50 [47] was 3620 nM. For the same compound, the TGI [47] was > 100000 nM, the GI50 [48] was 6200 nM and the TGI [48] was 25100 nM. For the same compound, the GI50 [49] was 7200 nM, the TGI [49] was 43000 nM and the GI50 [50] was 7080 nM. The TGI [50] was > 100000 nM, the GI50 [51] was 7660 nM and the TGI [51] was > 100000 nM. For the same compound, the GI50 [52] was 34900 nM and the TGI [52] was > 100000 nM.

With `CC(C)C[C@H](NC(=O)[C@@H]1CCCCCCCCCCC(=O)N[C@@H](CC(=O)N2CCC[C@@H]2C2CCCC2)C(=O)N1)B(O)O` the GI50 [1] was 22.2 nM and 15.7 nM, the TGI [1] was 10200 nM and the GI50 [2] was 2.87 nM. For the same compound, the GI50 [3] was 3.83 nM, the TGI [3] was 14.5 nM and the GI50 [4] was 3.67 nM. It also gave a GI50 [53] of 1.99 nM, a TGI [53] of 5.29 nM and a GI50 [5] of 1.77 nM. The TGI [5] was 4.27 nM, the GI50 [6] was 4.08 nM and the GI50 [7] was 5.5 nM. For the same compound, the TGI [7] was 75.4 nM and 109 nM, the GI50 [8] was 2.02 nM and the TGI [8] was 4.4 nM. The GI50 [9] was 4.09 nM, the TGI [9] was 42 nM and 25.4 nM and the GI50 [10] was 4.46 nM. For the same compound, the TGI [10] was 46.6 nM, the GI50 [11] was 5.68 nM and the TGI [11] was 23 nM. It also gave a GI50 [12] of 2.53 nM, a TGI [12] of 6.28 nM and a GI50 [13] of 4.56 nM. The TGI [13] was > 100000 nM, the GI50 [14] was 9.25 nM and 21.7 nM and the GI50 [15] was 1.75 nM. For the same compound, the TGI [15] was 3.46 nM, the GI50 [16] was 8.46 nM and the TGI [16] was 37000 nM. For the same compound, the GI50 [17] was 2.57 nM, the TGI [17] was 6.73 nM and the GI50 [18] was 3.76 nM. The TGI [18] was 289 nM and 1200 nM, the GI50 [19] was 3.97 nM and the TGI [19] was 17.2 nM. For the same compound, the GI50 [20] was 1.64 nM, the TGI [20] was 3.71 nM and 23.8 nM and the GI50 [21] was 3.4 nM. For the same compound, the TGI [21] was 8480 nM, the GI50 [22] was 41 nM and 37.3 nM and the TGI [22] was 208 nM and 462 nM. The GI50 [23] was 1.4 nM, the TGI [23] was 3.05 nM and the GI50 [24] was 2.89 nM. For the same compound, the TGI [24] was 11.9 nM, the GI50 [25] was 2.6 nM and the GI50 [54] was 3.7 nM. The GI50 [27] was 1.87 nM, the TGI [27] was 3.81 nM and the GI50 [55] was 3.2 nM. The TGI [55] was 1940 nM, the GI50 [28] was 3.92 nM and the TGI [28] was 17.8 nM and 72.9 nM. It also gave a GI50 [29] of 7.11 nM, a TGI [29] of 4570 nM and a GI50 [30] of 4.22 nM. For the same compound, the TGI [30] was 94 nM, the GI50 [56] was 3.81 nM and the TGI [56] was > 100000 nM. For the same compound, the GI50 [31] was 1.77 nM, the TGI [31] was 3.56 nM and the GI50 [57] was 171 nM and 317 nM. The TGI [57] was 466 nM and 1800 nM, the GI50 [34] was 21.6 nM and 34.4 nM and the TGI [34] was 98.2 nM and 180 nM. For the same compound, the GI50 [35] was 2.15 nM, the TGI [35] was 5.04 nM and 11.3 nM and the GI50 [36] was 108 nM and 52.6 nM. The TGI [36] was 3350 nM, the GI50 [37] was 58.5 nM and 25.9 nM and the TGI [37] was 5940 nM. For the same compound, the GI50 [38] was 4.5 nM, the TGI [38] was 20.2 nM and 18 nM and the GI50 [39] was 3.65 nM. It also gave a TGI [39] of 16.9 nM, a GI50 [40] of 1.83 nM and a TGI [40] of 3.32 nM. It also gave a GI50 [41] of 2.15 nM, a TGI [41] of 5.11 nM and a GI50 [42] of 4.07 nM. The TGI [42] was 16.8 nM, the GI50 [43] was 4.43 nM and the TGI [43] was 23.6 nM and 15.9 nM. For the same compound, the GI50 [58] was 4.61 nM, the TGI [58] was 96.4 nM and 59.3 nM and the GI50 [44] was 24.9 nM and 21.8 nM. The TGI [44] was 173 nM and 168 nM, the GI50 [45] was 2.21 nM and the TGI [45] was 5.66 nM. The GI50 [46] was 119 nM and 224 nM, the TGI [46] was 356 nM and 2460 nM and the GI50 [48] was 1.8 nM. The TGI [48] was 3.47 nM, the GI50 [49] was 8.62 nM and the TGI [49] was 43.6 nM and 40.5 nM. For the same compound, the GI50 [50] was 1970 nM, the TGI [50] was 5900 nM and the GI50 [51] was 3.72 nM. The GI50 [52] was 2.23 nM and the TGI [52] was 6.22 nM.
